These results are taken from PubChem BioAssay (NCI).

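48-hour exposure; five concentrations; linearly interpolated endpoints. GI50 is the concentration that inhibits growth by half. TGI denotes the concentration required for complete inhibition of growth.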

Test systems include M14 melanoma; SF-295 CNS; SK-OV-3 ovarian; EKVX NSCLC; HT29 colon; SK-MEL-2 melanoma; TK-10 renal; IGROV1 ovarian; KM12 colon; HOP-92 NSCLC.
Holding throughout (test): DTP human tumour cell line panel, 48 h

For the molecule `CCc1cccc(C)c1NS(=O)(=O)c1ccccc1`, the TGI in the experiment with M14 melanoma, in the experiment on SF-295 CNS, in the experiment with SK-OV-3 ovarian, in the experiment with EKVX NSCLC, in the experiment on HT29 colon and with SK-MEL-2 melanoma was more than 100 µM throughout. Further, the TGI with TK-10 renal, in the experiment on IGROV1 ovarian and with KM12 colon was more than 100 µM each time.
In the case of `CNC(=S)Nc1ccc(OC)c2ccccc12`, the concentration for total growth inhibition (TGI) (usually the concentration at which net growth stops) in the experiment on M14 melanoma was more than 10 µM; with SF-295 CNS, 5.77 µM; in the experiment with SK-OV-3 ovarian it was more than 10 µM; in the experiment with HT29 colon, more than 10 µM; in the experiment with TK-10 renal it was more than 10 µM; in the experiment on HOP-92 NSCLC it was more than 10 µM. Moreover, the TGI with IGROV1 ovarian and with KM12 colon was more than 10 µM in each case.
With `C[N+](C)(C)CCC(=O)CC[N+](C)(C)C`, the concentration for total growth inhibition (TGI) was 34.2 µM in the experiment on M14 melanoma; 34.5 µM in the experiment on SF-295 CNS; more than 100 µM in the experiment with SK-OV-3 ovarian; more than 100 µM in the experiment with EKVX NSCLC; 31.6 µM in the experiment on HT29 colon; 66.1 µM in the experiment with SK-MEL-2 melanoma. Moreover, the TGI with TK-10 renal is 34.6 µM; in the experiment on IGROV1 ovarian, more than 100 µM; with KM12 colon, 42.2 µM.
Turning to `Cc1nc(C(N)=O)c(N)n1CCN1CCN(C(=O)CCCCCCCCCCNC2N=CNc3nc[nH]c32)CC1` (stereo unspecified), the TGI in the experiment with M14 melanoma is 82.8 µM; with SF-295 CNS, more than 100 µM; in the experiment with SK-OV-3 ovarian, more than 100 µM; in the experiment with HT29 colon, more than 100 µM; in the experiment on SK-MEL-2 melanoma, 44.5 µM; with TK-10 renal, more than 100 µM. For the same molecule, the TGI with HOP-92 NSCLC, in the experiment on IGROV1 ovarian and in the experiment on KM12 colon was more than 100 µM throughout.
Take `CN1CCN(C(=S)N(C)C(=O)c2ccco2)CC1`: the concentration for total growth inhibition (TGI) in the experiment on M14 melanoma, with SF-295 CNS, with HT29 colon, with SK-MEL-2 melanoma, with TK-10 renal and in the experiment on HOP-92 NSCLC was more than 100 µM throughout. The TGI with IGROV1 ovarian and in the experiment with KM12 colon was more than 100 µM each time.
As to `C[C@@H](NC(C#N)c1ccco1)c1ccccc1` (stereo partly specified), the TGI in the experiment on M14 melanoma, with SF-295 CNS, in the experiment on SK-OV-3 ovarian, with EKVX NSCLC, in the experiment with HT29 colon and in the experiment with TK-10 renal was more than 100 µM in each case. The TGI in the experiment with HOP-92 NSCLC, with IGROV1 ovarian and in the experiment with KM12 colon was more than 100 µM throughout.
Take `CO/N=C(\COc1ccc2c(c1)[nH]c1ccccc12)c1ccc(OC)cc1`: the GI50 (commonly the concentration that inhibits growth by half) with M14 melanoma is more than 100 µM; in the experiment with SF-295 CNS it was 13.6 µM; in the experiment with SK-OV-3 ovarian, 34.6 µM; in the experiment with EKVX NSCLC, 26 µM; in the experiment on HT29 colon it was 4.36 µM; with TK-10 renal it was 13.6 µM. Moreover, the GI50 in the experiment with HOP-92 NSCLC was 11.9 µM; in the experiment with IGROV1 ovarian, 31.5 µM; with KM12 colon it was more than 100 µM. Besides, the concentration for total growth inhibition (TGI) was more than 100 µM in the experiment on M14 melanoma; 99.2 µM with SF-295 CNS; more than 100 µM with SK-OV-3 ovarian; more than 100 µM in the experiment on EKVX NSCLC; more than 100 µM with HT29 colon; 66.7 µM with TK-10 renal. The TGI in the experiment on HOP-92 NSCLC, with IGROV1 ovarian and in the experiment on KM12 colon was more than 100 µM each time.
On to `CCSCCCSCCSCC`, for which the TGI in the experiment on M14 melanoma, in the experiment with SF-295 CNS, in the experiment on SK-OV-3 ovarian, in the experiment with EKVX NSCLC, with HT29 colon and in the experiment with TK-10 renal was more than 100 µM each time. Further, the TGI in the experiment with IGROV1 ovarian and with KM12 colon was more than 100 µM throughout.
In the case of `O=C1CC(CC(=O)C2CCCCC2=O)C(=O)N1` (stereo unspecified), the concentration for total growth inhibition (TGI) in the experiment with M14 melanoma, with SF-295 CNS, in the experiment on SK-OV-3 ovarian, with EKVX NSCLC, with HT29 colon and in the experiment on TK-10 renal was more than 100 µM throughout. In addition, the TGI in the experiment with HOP-92 NSCLC, in the experiment with IGROV1 ovarian and in the experiment with KM12 colon was more than 100 µM in each case.
As for `O=C(O)c1nc(NCc2nc3cc(Cl)ccc3o2)n[nH]1`, the GI50 in the experiment with M14 melanoma, in the experiment with SF-295 CNS, with SK-OV-3 ovarian, with EKVX NSCLC, in the experiment with HT29 colon and with SK-MEL-2 melanoma was more than 100 µM throughout. Further, the GI50 in the experiment with TK-10 renal, in the experiment on IGROV1 ovarian and with KM12 colon was more than 100 µM each time. Further, the TGI with M14 melanoma, in the experiment with SF-295 CNS, in the experiment on SK-OV-3 ovarian, with EKVX NSCLC, in the experiment on HT29 colon and in the experiment on SK-MEL-2 melanoma was more than 100 µM each time. In addition, the TGI in the experiment on TK-10 renal, in the experiment with IGROV1 ovarian and with KM12 colon was more than 100 µM in each case.
In the case of `COC1=NCc2ccccc2-c2ccccc21`, the TGI in the experiment on SF-295 CNS, in the experiment with SK-OV-3 ovarian, in the experiment with HT29 colon, in the experiment with SK-MEL-2 melanoma, with TK-10 renal and with KM12 colon was more than 100 µM in each case.
With `COc1cc(Cl)cc(=O)c(O)c1OC`, the TGI with M14 melanoma was more than 100 µM; in the experiment with SF-295 CNS it was more than 100 µM; with SK-OV-3 ovarian it was more than 100 µM; with EKVX NSCLC, more than 91.8 µM; in the experiment with HT29 colon, more than 100 µM; with SK-MEL-2 melanoma, more than 100 µM. Also, the TGI with TK-10 renal and in the experiment with KM12 colon was more than 100 µM in each case.
With `O=C1C=CC(=O)c2c1ccc1c3ccccc3n(Cc3ccc([N+](=O)[O-])cc3)c21`, the TGI with M14 melanoma, in the experiment with SF-295 CNS, in the experiment on SK-OV-3 ovarian, in the experiment on EKVX NSCLC, in the experiment with HT29 colon and with TK-10 renal was more than 100 µM each time. Further, the TGI in the experiment with IGROV1 ovarian and in the experiment on KM12 colon was more than 100 µM throughout.
For `O=[N+]([O-])c1ccccc1N=Nc1c(O)[nH]c2cccc(C(F)(F)F)c12`, the TGI in the experiment on M14 melanoma, in the experiment with SF-295 CNS, with SK-OV-3 ovarian, in the experiment with EKVX NSCLC, in the experiment on HT29 colon and in the experiment on SK-MEL-2 melanoma was more than 100 µM in each case. The TGI in the experiment on TK-10 renal was more than 100 µM; in the experiment with IGROV1 ovarian, 57.7 µM; in the experiment with KM12 colon, more than 100 µM.
